Where two headings read alike, the source gives them in different places.
Experiments:
human orexin-1 receptor = human orexin-1 receptor (Homo sapiens (Human), UniProt O43613); test: In vitro intracellular calcium measurements (FLIPR), antagonistic activity on orexin-1 receptor; format: cell-based; conditions: read-out: IC50 OX1
How it was run: (§1)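 CHO cells expressing human orexin-1 or orexin-2 receptor were seeded overnight, preincubated with antagonist for 120 min, then stimulated with agonist in a FLIPR Tetra.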

CYP3A4 = CYP3A4 (Homo sapiens (Human), UniProt P08684); test: CYP3A4 inhibition assay (human liver microsomes, testosterone 6β-hydroxylation); conditions: read-out: CYP3A4 IC50, 40 μM testosterone
CYP3A4, sequence (P08684 whole entry): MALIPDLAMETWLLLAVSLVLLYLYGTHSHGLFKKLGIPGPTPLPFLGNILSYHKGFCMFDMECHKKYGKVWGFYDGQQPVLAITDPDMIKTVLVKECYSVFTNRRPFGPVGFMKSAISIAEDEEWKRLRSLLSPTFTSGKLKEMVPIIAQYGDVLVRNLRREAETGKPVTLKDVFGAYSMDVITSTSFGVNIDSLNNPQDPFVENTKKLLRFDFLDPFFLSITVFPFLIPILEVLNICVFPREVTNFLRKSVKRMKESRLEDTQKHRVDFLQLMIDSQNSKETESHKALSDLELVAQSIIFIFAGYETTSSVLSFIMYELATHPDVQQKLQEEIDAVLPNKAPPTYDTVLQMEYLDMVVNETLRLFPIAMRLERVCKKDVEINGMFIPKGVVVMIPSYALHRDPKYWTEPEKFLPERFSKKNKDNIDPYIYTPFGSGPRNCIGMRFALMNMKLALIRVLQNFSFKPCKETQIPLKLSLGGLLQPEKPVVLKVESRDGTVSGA

human orexin-2 receptor = human orexin-2 receptor (Homo sapiens (Human), UniProt O43614); test: In vitro intracellular calcium measurements (FLIPR), antagonistic activity on orexin-2 receptor; format: cell-based; conditions: CHO cells expressing human orexin-2 receptor; FLIPR; 3 nM orexin-A agonist; 120 min antagonist incubation; geometric mean if determined several times; read-out: IC50 OX2
human orexin-2 receptor, sequence (O43614 whole entry): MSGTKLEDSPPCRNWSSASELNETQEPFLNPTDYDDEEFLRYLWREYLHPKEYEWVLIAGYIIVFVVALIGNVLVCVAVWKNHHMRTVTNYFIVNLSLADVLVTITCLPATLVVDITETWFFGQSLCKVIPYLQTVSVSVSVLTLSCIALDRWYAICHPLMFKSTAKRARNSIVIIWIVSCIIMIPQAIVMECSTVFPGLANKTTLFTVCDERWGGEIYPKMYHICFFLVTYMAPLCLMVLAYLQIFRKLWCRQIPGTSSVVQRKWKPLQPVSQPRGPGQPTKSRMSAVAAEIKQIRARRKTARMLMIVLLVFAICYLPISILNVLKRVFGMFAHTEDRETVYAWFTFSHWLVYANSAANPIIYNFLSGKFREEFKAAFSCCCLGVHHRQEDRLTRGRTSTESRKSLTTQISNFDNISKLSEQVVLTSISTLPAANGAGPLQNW
How it was run: as §1

[1] = CHO cells expressing human orexin-1 receptor, FLIPR, 3 nM orexin-A agonist, 120 min antagonist incubation, geometric mean if determined several times

human orexin-1 receptor, sequence (O43613 whole entry): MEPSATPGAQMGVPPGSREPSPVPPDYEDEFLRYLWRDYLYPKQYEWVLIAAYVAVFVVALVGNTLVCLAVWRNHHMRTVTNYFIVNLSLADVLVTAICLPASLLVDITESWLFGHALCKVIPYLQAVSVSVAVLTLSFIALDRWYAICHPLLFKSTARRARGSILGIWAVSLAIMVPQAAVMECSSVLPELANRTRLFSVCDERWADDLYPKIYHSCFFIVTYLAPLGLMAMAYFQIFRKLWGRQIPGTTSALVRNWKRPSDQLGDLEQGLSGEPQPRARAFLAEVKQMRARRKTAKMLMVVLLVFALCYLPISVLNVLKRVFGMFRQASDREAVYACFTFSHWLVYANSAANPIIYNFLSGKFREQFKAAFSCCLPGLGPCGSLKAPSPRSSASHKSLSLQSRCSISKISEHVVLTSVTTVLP

SMILES	IC50 (human orexin-1 receptor; [1])	IC50 (CYP3A4)	IC50 (human orexin-2 receptor)	IC50 (human orexin-1 receptor)
O=C(c1ccc(C(F)(F)F)cc1-n1nccn1)N1CCOC[C@H]1Cc1cc(-n2nccn2)ccc1F [Example 138, [(R)-3-(2-Fluoro-5-[1,2,3]triazol-2-yl-benzyl)-morpholin-4-yl]-(2-[1,2,3]triazol-2-yl-4-trifluoromethyl-phenyl)-methanone]	0.004 µM	7.4 µM	0.159 µM	
COc1cc(C(=O)N2CCOC[C@H]2Cc2cc(-n3nccn3)ccc2F)c(-n2nccn2)cc1Cl [Example 139, (4-Chloro-5-methoxy-2-[1,2,3]triazol-2-yl-phenyl)-[(R)-3-(2-fluoro-5-[1,2,3]triazol-2-yl-benzyl)-morpholin-4-yl]-methanone]	0.01 µM	13 µM	0.191 µM	
Cc1ccc(C(=O)N2C[C@@H](C)OC[C@H]2Cc2cc(-n3ccnn3)ccc2F)c(-n2nccn2)c1 [Example 141, [(2R,5R)-5-(2-Fluoro-5-[1,2,3]triazol-1-yl-benzyl)-2-methyl-morpholin-4-yl]-(4-methyl-2-[1,2,3]triazol-2-yl-phenyl)-methanone]	0.016 µM	19 µM	0.429 µM	
CC[C@@H]1CN(C(=O)c2cc(C)ccc2-n2nccn2)[C@H](Cc2cccc(-n3nccn3)c2)CO1 [Example 142, [(2R,5R)-2-Ethyl-5-(3-[1,2,3]triazol-2-yl-benzyl)-morpholin-4-yl]-(5-methyl-2-[1,2,3]triazol-2-yl-phenyl)-methanone]	0.005 µM	9.2 µM	0.287 µM	
CC[C@@H]1CN(C(=O)c2ccccc2-n2nccn2)[C@H](Cc2cccc(-n3nccn3)c2)CO1 [Example 143, [(2R,5R)-2-Ethyl-5-(3-[1,2,3]triazol-2-yl-benzyl)-morpholin-4-yl]-(2-[1,2,3]triazol-2-yl-phenyl)-methanone]	0.019 µM	9.1 µM	0.485 µM	
CC[C@@H]1CN(C(=O)c2ccc(C)cc2-n2nccn2)[C@H](Cc2cccc(-n3nccn3)c2)CO1 [Example 144, [(2R,5R)-2-Ethyl-5-(3-[1,2,3]triazol-2-yl-benzyl)-morpholin-4-yl]-(4-methyl-2-[1,2,3]triazol-2-yl-phenyl)-methanone]	0.005 µM	9.6 µM	0.104 µM	
O=C(c1ccccc1-n1nccn1)N1CCOC[C@H]1Cc1cc(F)cc(-n2nccn2)c1 [Example 145, [(R)-3-(3-Fluoro-5-[1,2,3]triazol-2-yl-benzyl)-morpholin-4-yl]-(2-[1,2,3]triazol-2-yl-phenyl)-methanone]	0.034 µM	22 µM	1.51 µM	
Cc1ccc(C(=O)N2CCOC[C@H]2Cc2cc(F)cc(-n3nccn3)c2)c(-n2nccn2)c1 [Example 146, [(R)-3-(3-Fluoro-5-[1,2,3]triazol-2-yl-benzyl)-morpholin-4-yl]-(4-methyl-2-[1,2,3]triazol-2-yl-phenyl)-methanone]		40 µM	0.282 µM	0.003 µM
Cc1ccc(C(=O)N2C[C@@H](C)OC[C@H]2Cc2cc(-c3ncccn3)ccc2F)c(-n2nccn2)c1 [Example 149, [(2R,5R)-5-(2-Fluoro-5-pyrimidin-2-yl-benzyl)-2-methyl-morpholin-4-yl]-(4-methyl-2-[1,2,3]triazol-2-yl-phenyl)-methanone]	0.004 µM	31 µM	0.263 µM	
Cc1cccc(C(=O)N2C[C@@H](C)OC[C@H]2Cc2cc(-c3ncccn3)ccc2F)c1-n1nccn1 [Example 150, [(2R,5R)-5-(2-Fluoro-5-pyrimidin-2-yl-benzyl)-2-methyl-morpholin-4-yl]-(3-methyl-2-[1,2,3]triazol-2-yl-phenyl)-methanone]	0.009 µM	32 µM	0.506 µM	
C[C@@H]1CN(C(=O)c2cc(Cl)ccc2-n2nccn2)[C@H](Cc2cc(-c3ncccn3)ccc2F)CO1 [Example 152, (5-Chloro-2-[1,2,3]triazol-2-yl-phenyl)-[(2R,5R)-5-(2-fluoro-5-pyrimidin-2-yl-benzyl)-2-methyl-morpholin-4-yl]-methanone]	0.004 µM	15 µM	0.129 µM	
C[C@@H]1CN(C(=O)c2cccc(Cl)c2-n2nccn2)[C@H](Cc2cc(-c3ncccn3)ccc2F)CO1 [Example 154, (3-Chloro-2-[1,2,3]triazol-2-yl-phenyl)-[(2R,5R)-5-(2-fluoro-5-pyrimidin-2-yl-benzyl)-2-methyl-morpholin-4-yl]-methanone]	0.013 µM	24 µM	0.447 µM	
O=C(c1cc(Cl)ccc1-n1nccn1)N1CCOC[C@H]1Cc1cc(-c2ncccn2)ccc1F [Example 159, (5-Chloro-2-[1,2,3]triazol-2-yl-phenyl)-[(R)-3-(2-fluoro-5-pyrimidin-2-yl-benzyl)-morpholin-4-yl]-methanone]	0.006 µM	17 µM	0.49 µM	
O=C(c1cccc(Cl)c1-n1nccn1)N1CCOC[C@H]1Cc1cc(-c2ncccn2)ccc1F [Example 161, (3-Chloro-2-[1,2,3]triazol-2-yl-phenyl)-[(R)-3-(2-fluoro-5-pyrimidin-2-yl-benzyl)-morpholin-4-yl]-methanone]	0.016 µM	33 µM	0.655 µM	
Cc1ccc(C(=O)N2C[C@@H](C)OC[C@H]2Cc2cc(-c3cccnn3)ccc2F)c(-n2nccn2)c1 [Example 165, [(2R,5R)-5-(2-Fluoro-5-pyridazin-3-yl-benzyl)-2-methyl-morpholin-4-yl]-(4-methyl-2-[1,2,3]triazol-2-yl-phenyl)-methanone]	0.014 µM	20 µM	1.3 µM	
Cc1ccc(C(=O)N2CCOC[C@H]2Cc2cc(-c3cccnn3)ccc2F)c(-n2nccn2)c1 [Example 166, [(R)-3-(2-Fluoro-5-pyridazin-3-yl-benzyl)-morpholin-4-yl]-(4-methyl-2-[1,2,3]triazol-2-yl-phenyl)-methanone]	0.013 µM	19 µM	1.4 µM	
Cc1ccc(C(=O)N2CCOC[C@H]2Cc2cc(-n3nccn3)ccc2Cl)c(-n2nccn2)c1C [Example 169, [(R)-3-(2-Chloro-5-[1,2,3]triazol-2-yl-benzyl)-morpholin-4-yl]-(3,4-dimethyl-2-[1,2,3]triazol-2-yl-phenyl)-methanone]	0.005 µM	29 µM	2.44 µM	
O=C(c1ccc(Cl)cc1-n1nccn1)N1CCOC[C@H]1Cc1cc(-n2nccn2)ccc1Cl [Example 170, [(R)-3-(2-Chloro-5-[1,2,3]triazol-2-yl-benzyl)-morpholin-4-yl]-(4-chloro-2-[1,2,3]triazol-2-yl-phenyl)-methanone]	0.007 µM	9.8 µM	0.451 µM	
O=C(c1cccc(Cl)c1-n1nccn1)N1CCOC[C@H]1Cc1cc(-n2nccn2)ccc1Cl [Example 171, [(R)-3-(2-Chloro-5-[1,2,3]triazol-2-yl-benzyl)-morpholin-4-yl]-(3-chloro-2-[1,2,3]triazol-2-yl-phenyl)-methanone]	0.01 µM	13 µM	0.675 µM	
C[C@@H]1CN(C(=O)c2cccc(Cl)c2-n2nccn2)[C@H](Cc2cccc(-n3nccn3)c2)CO1 [Example 172, (3-Chloro-2-[1,2,3]triazol-2-yl-phenyl)-[(2R,5R)-2-methyl-5-(3-[1,2,3]triazol-2-yl-benzyl)-morpholin-4-yl]-methanone]	0.003 µM	23 µM	0.093 µM	
C[C@@H]1CN(C(=O)c2cccc(Cl)c2-n2nccn2)[C@H](Cc2cc(-n3nccn3)ccc2F)CO1 [Example 173, (3-Chloro-2-[1,2,3]triazol-2-yl-phenyl)-[(2R,5R)-5-(2-fluoro-5-[1,2,3]triazol-2-yl-benzyl)-2-methyl-morpholin-4-yl]-methanone]	0.016 µM	21 µM	0.455 µM	
Cc1ccc(-n2nccn2)c(C(=O)N2CCOC[C@H]2Cc2cc(-c3ncon3)ccc2F)c1 [Example 174, [(R)-3-(2-Fluoro-5-[1,2,4]oxadiazol-3-yl-benzyl)-morpholin-4-yl]-(5-methyl-2-[1,2,3]triazol-2-yl-phenyl)-methanone]	0.008 µM	50 µM	0.642 µM	
Cc1ccc(C(=O)N2CCOC[C@H]2Cc2cc(-c3ncon3)ccc2F)c(-n2nccn2)c1 [Example 175, [(R)-3-(2-Fluoro-5-[1,2,4]oxadiazol-3-yl-benzyl)-morpholin-4-yl]-(4-methyl-2-[1,2,3]triazol-2-yl-phenyl)-methanone]	0.003 µM	35 µM	0.359 µM	
O=C(c1cc(Cl)ccc1-n1nccn1)N1CCOC[C@H]1Cc1cc(-c2ncon2)ccc1F [Example 176, (5-Chloro-2-[1,2,3]triazol-2-yl-phenyl)-[(R)-3-(2-fluoro-5-[1,2,4]oxadiazol-3-yl-benzyl)-morpholin-4-yl]-methanone]	0.011 µM	22 µM	0.24 µM	
O=C(c1ccc(Cl)cc1-n1nccn1)N1CCOC[C@H]1Cc1cc(-c2ncon2)ccc1F [Example 178, (4-Chloro-2-[1,2,3]triazol-2-yl-phenyl)-[(R)-3-(2-fluoro-5-[1,2,4]oxadiazol-3-yl-benzyl)-morpholin-4-yl]-methanone]	0.002 µM	24 µM	0.165 µM	
Cc1cc(C(=O)N2CCOC[C@H]2Cc2cc(-c3ncon3)ccc2F)c(-n2nccn2)cc1C [Example 179, (4,5-Dimethyl-2-[1,2,3]triazol-2-yl-phenyl)-[(R)-3-(2-fluoro-5-[1,2,4]oxadiazol-3-yl-benzyl)-morpholin-4-yl]-methanone]	0.002 µM	29 µM	0.034 µM	

From patent US9150566B2, “2-(1,2,3-triazol-2-yl)benzamide and 3-(1,2,3-triazol-2-YL)picolinamide derivatives as orexin receptor antagonists” (ACTELION PHARMACEUTICALS LTD., priority 2011, dated 2015)
